What was measured:
[1] = test system: T47D; experiment: AlamarBlue cell viability assay, T47D; assay type: cell-based; details: Homo sapiens, Mammary
Description: (§1) (A) Inhibitory concentration 50% (IC50) values for compound 43 in the MC cell lines are tabulated, using an AlamarBlue™ cell viability assay as previously described in Pandey V et al., Breast Cancer Res. 2014; 16(5):429. (B) Measured dose-dependent manner effect of compound 43 on the viability of MC cells (left-side, TFF3-high and right, TFF3-low) using AlamarBlue™ viability assay as previously described (ibid). (C) Apoptotic cell death of mammary carcinoma cell lines measured after treatment with 10 μM compound 43 using flow cytometry analysis at 24 hour as described previously in Keerthy H K et al., PloS one. 2014; 9(9):e107118. Annexin V-FITC staining is indicated on the X-axis and PI staining on the Y-axis. […] Acquisition of Annexin V and PI data were represented as percentage (%) in each quadrant. Note: CM, conditioned media; MCF10A and MCF12A, non-transformed immortalized-mammary epithelial cell line. Points are mean of triplicate experiments; bars, ±SD. Statistical significance was assessed by using an unpaired two-tailed Student's t test (P<0.05 was considered as significant) using GraphPad Prism5. […]
(§2) In table 9 IC50 values of compound 43 compound library in several cancer cell lines are tabulated, using an AlamarBlue® cell viability assay as previously described in Pandey V et al., Breast Cancer Res. 2014; 16(5):429. Statistical analysis was assessed by using GraphPad Prism5. […]

[2] = test system: MDA-MB-361; experiment: AlamarBlue cell viability assay, MDA-MB-361; assay type: cell-based; details: Homo sapiens, Mammary
Description: as §1, §2

[3] = test system: MDA-MB-436; experiment: AlamarBlue cell viability assay, MDA-MB-436; assay type: cell-based; details: Homo sapiens, Mammary
Description: as §1, §2

[4] = test system: HCC4006; experiment: AlamarBlue cell viability assay, HCC4006; assay type: cell-based; details: Homo sapiens, Lung
Experimental: (§3) The human immortalized mammary epithelial cell lines, MCF10A, and MCF12A; and immortalized hepatocellular epithelial cell line, LO2 were obtained from the American Type Culture Collection (ATCC, Rockville, Md.) and were cultured as per ATCC propagation instructions. MC cell lines, MCF7, T47D, BT474, BT20, MDA-MB-361, MDA-MB-436, MDA-MB-468, and MDA-MB-231; endometrial carcinoma cell lines, Ishikawa, ECC1, RL95-2 and AN3; hepatocellular carcinoma cell lines, Hep3B, H2P, and H2M; colon carcinoma cell lines, DLD-1, and Caco-2; and prostate carcinoma cell lines, PC3, LNCaP, and DU145 were obtained from the American Type Culture Collection (ATCC, Rockville, Md.). Pancreatic carcinoma cell lines, AsPC-1 and BxPC-3; Lung carcinoma cell lines, HCC-827, NCI-H1975, HCC-4006, PC-14, and NCI-H1299; and Thyroid carcinoma cell lines HTH83, CAL62, T238, and OGK-M were obtained from Prof. H. Phillip Koeffler's laboratory at The Cancer Science Institute of Singapore, National University of Singapore (NUS). Gastric carcinoma cell lines, AGS, MKN-28, MKN-45, and A2-528 were obtained from Prof. […]
as §2

[5] = test system: H1975; experiment: AlamarBlue cell viability assay, H1975; assay type: cell-based; details: Homo sapiens, NCI-H1975, Lung
Experimental: as §3, §2

[6] = test system: PC-14; experiment: AlamarBlue cell viability assay, PC-14; assay type: cell-based; details: Homo sapiens, Lung
Experimental: as §3, §2

[7] = test system: BxPC-3; experiment: AlamarBlue cell viability assay, BxPC-3; assay type: cell-based; details: Homo sapiens, Pancreatic
Experimental: as §3, §2

[8] = test system: A2-528; experiment: AlamarBlue cell viability assay, A2-528; assay type: cell-based; details: Homo sapiens, Gastric
Experimental: as §3, §2

[9] = test system: high-TFF3 expression MC cells; experiment: ApoTox-Glo Triplex Assay and western blot (FIG. 2); assay type: cell-based, human; details: 10 μM
Experimental: Effect of compound 43 (10 μM) on cell viability of high-TFF3 MC cell lines. (A) Cell viability (B) caspase 3/7 activities and (C) cytotoxicity was evaluated using ApoTox-Glo™ Triplex Assay Kit Promega (Singapore) according to manufacturer's instructions. Cell viability fluorescence is measured at 400Ex/505Em, cytotoxicity fluorescence is measured at 485Ex/520Em, while apoptosis (caspase 3/7 activities) is determined by luminescence measurement. (D) Western blot analysis was used to assess the level of various protein markers and protein activity in high-TFF3 expression MC cells after treatment with compound 43. Soluble whole cell extracts were run on a SDS-PAGE and immunoblotted as previously described in Pandey V et al., Breast Cancer Res. 2014; 16(5):429. β-ACTIN (ACTB) was used as input control for cell lysate. The sizes of detected protein bands in kDa are shown on the left side. Statistical significance was assessed by using an unpaired two-tailed Student's t test (P<0.05 was considered as significant) using GraphPad Prism5. Columns are mean of triplicate experiments; bars, ±SD. **P<0.001, *P<0.05.

[10] = test system: TFF3-high expressing mammary carcinoma cell (MCF7, BT474, MDA-MB-361); experiment: Cell viability in 3D Matrigel culture, AlamarBlue (FIG. 4); assay type: cell-based, human; details: cultured 14 days in 3D Matrigel, vs vehicle (DMSO)
Experimental: Cell viability in colonies generated by MCF7, BT474 and MDA-MB-361 cell after exposure with compound 43 or vehicle (DMSO) cultured 14 days in 3D Matrigel using AlamarBlue™ viability assay as previously described in Pandey V et al., Breast Cancer Res. 2014; 16(5):429. Microscopic visualization (right side) of colonies generated by BT474 and MCF7 cells after exposure with compound 43 or vehicle (DMSO) cultured 14 days in 3D Matrigel. On days 5, 8 and 11, colonies were treated with compound 43 or DMSO. Statistical significance was assessed by using an unpaired two-tailed Student's t test (P<0.05 was considered as significant) using GraphPad Prism5.

Cc1cc(-c2ccc(C3C(C#N)=C(N)Oc4c3c(=O)oc3ccccc43)cc2)cnc1F (stereo not shown) [Compound 43, 2-Amino-4-(4-(6-fluoro-5-methylpyridin-3-yl)phenyl)-5-oxo-4H,5H-pyrano[3,2-c]chromene-3-carbonitrile]
IC50 [1]: 5.24 µM | IC50 [2]: 1.61 µM | IC50 [3]: 396 µM | IC50 [4]: 3.92 µM | IC50 [5]: 11.8 µM | IC50 [6]: 24.2 µM | IC50 [7]: 2.56 µM | IC50 [8]: 34.1 µM | intrinsic apoptosis [9]: stimulates intrinsic apoptosis | cell viability in Matrigel 3D culture [10]: suppresses cell viability
